Experimental data published in publication PMC7429951 (Journal of Medicinal Chemistry, 2020).
Where two headings read alike, the source gives them in different places.

Key:
LasB [1] = target: T1, LasB (Pseudomonas aeruginosa, UniProt Q02RJ6); conditions: read-out: IC50 (LasB); literature inhibitor; cited from earlier work
HDAC-8 = target: T2, HDAC-8 (Homo sapiens, UniProt Q9BY41); assay: HDAC-8 inhibitor screening kit; type: biochemical
T2 construct: purchased Sigma-Aldrich (Saint Louis, MO)
T2 sequence (Q9BY41 1-377): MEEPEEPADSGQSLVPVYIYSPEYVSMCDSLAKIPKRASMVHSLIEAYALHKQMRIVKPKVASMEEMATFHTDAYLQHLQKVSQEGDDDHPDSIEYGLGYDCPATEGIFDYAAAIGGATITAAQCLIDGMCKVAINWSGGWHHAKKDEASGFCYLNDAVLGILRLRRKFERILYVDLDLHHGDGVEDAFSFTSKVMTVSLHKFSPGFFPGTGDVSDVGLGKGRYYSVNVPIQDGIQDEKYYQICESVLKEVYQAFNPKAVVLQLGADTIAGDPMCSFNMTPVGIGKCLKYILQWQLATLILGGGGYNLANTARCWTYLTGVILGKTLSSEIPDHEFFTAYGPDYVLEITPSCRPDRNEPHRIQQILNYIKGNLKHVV
Description: (§1) Previously, we described N-aryl mercaptoacetamides with high selectivity for the bacterial over a broad range of human MMPs.[29],[30] MMPs are calcium-dependent zinc metalloproteases that play a pivotal role in numerous biochemical processes in humans.[39],[40] Based on the depth of their S1′ binding pocket, MMPs can be divided into three classes: deep (e.g., MMP-3 and -14), intermediate (e.g., MMP-2 and -8), and shallow (e.g., MMP-1 and -7). With the aim to explore the interactions of our inhibitors with all three pocket types, which could help us to assess potential effects on other not-tested representatives, we chose a panel of six MMPs, comprising two members of each class. In addition, HDAC-3, HDAC-8, and TACE (ADAM-17)—enzymes involved in gene expression and the processing of TNF-α,[41],[42] respectively—were selected as important additional human off-targets.

TACE (ADAM-17) = target: T3, TACE (ADAM-17) (Homo sapiens, UniProt P78536); assay: TACE inhibitor screening kit; type: biochemical
T3 construct: purchased Sigma-Aldrich (Saint Louis, MO)
T3 sequence (P78536 215-824): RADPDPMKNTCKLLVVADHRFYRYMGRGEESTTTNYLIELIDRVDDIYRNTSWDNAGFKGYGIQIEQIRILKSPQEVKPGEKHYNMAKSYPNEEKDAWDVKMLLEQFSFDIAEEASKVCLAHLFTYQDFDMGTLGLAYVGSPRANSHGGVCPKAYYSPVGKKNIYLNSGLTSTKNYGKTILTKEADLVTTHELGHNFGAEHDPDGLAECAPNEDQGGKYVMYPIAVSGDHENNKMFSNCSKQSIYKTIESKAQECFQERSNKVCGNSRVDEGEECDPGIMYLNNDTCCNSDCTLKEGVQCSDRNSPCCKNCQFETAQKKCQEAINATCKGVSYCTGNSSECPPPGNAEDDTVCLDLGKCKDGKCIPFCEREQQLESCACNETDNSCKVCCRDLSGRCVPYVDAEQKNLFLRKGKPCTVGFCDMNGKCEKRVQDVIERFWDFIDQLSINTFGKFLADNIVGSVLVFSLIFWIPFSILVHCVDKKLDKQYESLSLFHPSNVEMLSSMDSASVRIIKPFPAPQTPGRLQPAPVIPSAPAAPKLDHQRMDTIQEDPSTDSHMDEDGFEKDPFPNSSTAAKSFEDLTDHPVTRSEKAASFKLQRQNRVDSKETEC
Description: as §1

MMP-7 = target: T4, MMP-7 (Homo sapiens, UniProt P09237); assay: MMP-7 off-target inhibition; type: biochemical; conditions: read-out: MMP-7 % inhibition @ 100 μM; 100 μM compound
T4 sequence (P09237 95-267): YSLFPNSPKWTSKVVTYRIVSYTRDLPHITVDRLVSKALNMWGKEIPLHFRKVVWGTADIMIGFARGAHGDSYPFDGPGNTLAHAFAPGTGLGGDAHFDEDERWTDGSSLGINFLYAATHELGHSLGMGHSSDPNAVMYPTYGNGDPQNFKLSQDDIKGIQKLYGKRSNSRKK
Description: as §1

in vitro [2] = conditions: human, HEK293 cells (embryonal kidney)
MMP-3 = MMP-3 (Homo sapiens, UniProt P08254); assay: MMP-3 off-target inhibition; type: biochemical; conditions: read-out: MMP-3 % inhibition @ 100 μM; 100 μM compound
Sequence of MMP-3 (P08254 100-477): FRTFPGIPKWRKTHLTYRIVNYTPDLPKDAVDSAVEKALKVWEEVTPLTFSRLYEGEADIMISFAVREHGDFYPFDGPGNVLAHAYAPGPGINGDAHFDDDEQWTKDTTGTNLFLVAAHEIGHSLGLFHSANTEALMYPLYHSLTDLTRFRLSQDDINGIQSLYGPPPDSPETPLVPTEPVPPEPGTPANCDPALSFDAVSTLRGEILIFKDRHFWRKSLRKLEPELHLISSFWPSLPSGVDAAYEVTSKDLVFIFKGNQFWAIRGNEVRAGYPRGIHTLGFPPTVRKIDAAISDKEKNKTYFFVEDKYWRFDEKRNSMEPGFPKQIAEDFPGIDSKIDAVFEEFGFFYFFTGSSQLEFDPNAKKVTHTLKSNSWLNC
Description: as §1

MMP-1 = target: T5, MMP-1 (Homo sapiens, UniProt P03956); assay: MMP-1 off-target inhibition; type: biochemical; conditions: read-out: MMP-1 % inhibition @ 100 μM; 100 μM compound
T5 sequence (P03956 100-469): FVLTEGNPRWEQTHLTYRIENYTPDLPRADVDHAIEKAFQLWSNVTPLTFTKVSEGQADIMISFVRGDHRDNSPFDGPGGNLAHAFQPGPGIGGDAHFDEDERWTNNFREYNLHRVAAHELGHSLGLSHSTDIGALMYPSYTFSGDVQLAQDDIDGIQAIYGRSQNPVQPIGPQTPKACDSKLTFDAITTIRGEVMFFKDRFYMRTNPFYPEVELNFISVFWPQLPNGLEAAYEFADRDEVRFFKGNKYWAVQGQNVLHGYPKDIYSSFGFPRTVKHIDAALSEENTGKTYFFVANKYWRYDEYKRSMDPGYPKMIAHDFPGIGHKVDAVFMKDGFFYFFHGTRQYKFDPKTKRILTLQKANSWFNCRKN
Description: as §1

LasB [3] = target: T1, LasB; assay: biochemical; conditions: LasB IC50, FRET-based assay
LasB [4] = target: T1, LasB
MMP-8 = MMP-8 (Homo sapiens, UniProt P22894); assay: MMP-8 off-target inhibition; type: biochemical
Sequence of MMP-8 (P22894 101-467): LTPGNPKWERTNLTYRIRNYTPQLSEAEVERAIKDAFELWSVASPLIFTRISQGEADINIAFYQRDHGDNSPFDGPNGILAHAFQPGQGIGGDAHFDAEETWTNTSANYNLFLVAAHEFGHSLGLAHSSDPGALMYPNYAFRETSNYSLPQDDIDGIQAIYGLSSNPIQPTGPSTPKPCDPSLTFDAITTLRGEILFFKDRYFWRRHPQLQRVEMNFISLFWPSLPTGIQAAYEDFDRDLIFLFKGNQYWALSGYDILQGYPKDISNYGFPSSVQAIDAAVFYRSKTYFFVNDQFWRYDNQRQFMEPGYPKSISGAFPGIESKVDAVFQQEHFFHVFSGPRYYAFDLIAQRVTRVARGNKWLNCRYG
Description: as §1

HDAC-3 = target: T6, HDAC-3 (Homo sapiens, UniProt O15379); assay: HDAC-3 inhibitor screening kit; type: biochemical
T6 construct: purchased Sigma-Aldrich (Saint Louis, MO)
T6 sequence (O15379 whole entry): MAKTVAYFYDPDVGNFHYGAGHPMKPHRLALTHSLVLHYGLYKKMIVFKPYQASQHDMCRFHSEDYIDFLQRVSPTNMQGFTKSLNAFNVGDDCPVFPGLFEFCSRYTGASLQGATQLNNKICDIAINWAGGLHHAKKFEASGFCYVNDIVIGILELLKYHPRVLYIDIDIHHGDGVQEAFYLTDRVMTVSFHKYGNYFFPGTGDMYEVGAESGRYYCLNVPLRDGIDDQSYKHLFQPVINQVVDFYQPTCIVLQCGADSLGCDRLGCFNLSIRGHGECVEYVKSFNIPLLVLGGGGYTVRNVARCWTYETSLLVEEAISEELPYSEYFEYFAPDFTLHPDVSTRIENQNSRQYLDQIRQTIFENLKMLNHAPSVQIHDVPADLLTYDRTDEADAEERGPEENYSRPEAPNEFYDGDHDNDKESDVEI
T6 sequence (Q9Y618 395-489 partner limits assumed): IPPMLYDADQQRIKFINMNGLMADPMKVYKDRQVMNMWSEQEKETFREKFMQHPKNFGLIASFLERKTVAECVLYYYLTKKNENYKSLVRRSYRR
Description: as §1

[5] = test system: P. aeruginosa strain PA14; assay: Bacterial growth inhibition assay (MIC) P. aeruginosa; type: cell-based, Pseudomonas aeruginosa
MMP-14 = MMP-14 (Homo sapiens, UniProt P50281); assay: MMP-14 off-target inhibition; type: biochemical
Description: as §1

MMP-2 = target: T7, MMP-2 (Homo sapiens, UniProt P08253); assay: MMP-2 off-target inhibition; type: biochemical
T7 sequence (P08253 110-660): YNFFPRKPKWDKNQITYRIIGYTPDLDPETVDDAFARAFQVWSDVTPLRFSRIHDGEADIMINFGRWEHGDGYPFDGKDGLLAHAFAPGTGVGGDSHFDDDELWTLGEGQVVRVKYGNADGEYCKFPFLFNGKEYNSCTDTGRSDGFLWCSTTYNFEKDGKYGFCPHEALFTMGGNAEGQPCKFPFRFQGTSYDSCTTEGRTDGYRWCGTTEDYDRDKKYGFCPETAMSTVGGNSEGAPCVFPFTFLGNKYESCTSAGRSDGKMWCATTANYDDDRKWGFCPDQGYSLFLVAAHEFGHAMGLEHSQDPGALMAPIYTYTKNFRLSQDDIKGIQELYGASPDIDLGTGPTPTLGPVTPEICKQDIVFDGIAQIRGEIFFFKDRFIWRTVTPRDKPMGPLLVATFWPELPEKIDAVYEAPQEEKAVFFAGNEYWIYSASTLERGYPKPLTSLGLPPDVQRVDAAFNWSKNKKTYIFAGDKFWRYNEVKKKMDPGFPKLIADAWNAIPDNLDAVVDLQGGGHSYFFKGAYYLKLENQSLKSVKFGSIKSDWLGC
Description: as §1

[6] = target: peptidase domain of ColH (ColH-PD) (Hathewaya histolytica, UniProt Q46085); assay: biochemical; parameters: species or system Clostridium histolyticum; conditions: read-out: ColH-PD % inhibition @ 1 μM
Sequence of peptidase domain of ColH (ColH-PD) (Q46085 331-721 limits assumed): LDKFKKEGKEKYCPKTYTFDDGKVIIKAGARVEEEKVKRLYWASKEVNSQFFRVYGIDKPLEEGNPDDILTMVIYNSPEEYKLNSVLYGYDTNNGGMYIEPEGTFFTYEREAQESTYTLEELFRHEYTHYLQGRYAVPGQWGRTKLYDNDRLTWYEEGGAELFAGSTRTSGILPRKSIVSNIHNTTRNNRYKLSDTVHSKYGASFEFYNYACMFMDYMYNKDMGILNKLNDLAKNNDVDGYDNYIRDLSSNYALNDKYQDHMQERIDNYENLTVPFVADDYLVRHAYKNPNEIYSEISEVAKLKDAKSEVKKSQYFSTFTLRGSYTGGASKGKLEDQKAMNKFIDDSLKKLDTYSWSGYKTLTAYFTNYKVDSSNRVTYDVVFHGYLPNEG

in vitro [7] = conditions: human, A549 cells (lung carcinoma)
in vitro [8] = conditions: human, HepG2 cells (hepatocellular carcinoma)

T1 sequence (Q02RJ6 198-498): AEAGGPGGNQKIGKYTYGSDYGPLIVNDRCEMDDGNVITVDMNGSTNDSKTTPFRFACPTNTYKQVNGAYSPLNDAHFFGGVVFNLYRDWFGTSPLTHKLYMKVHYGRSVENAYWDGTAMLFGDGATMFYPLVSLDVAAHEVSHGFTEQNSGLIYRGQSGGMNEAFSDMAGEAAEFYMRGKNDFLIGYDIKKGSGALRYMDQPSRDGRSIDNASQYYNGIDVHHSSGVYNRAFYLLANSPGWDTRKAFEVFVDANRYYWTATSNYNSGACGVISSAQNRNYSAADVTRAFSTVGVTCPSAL

Question: For `Cc1c(O)c(=S)ccn1Cc1ccc(-c2ccccc2)cc1` [Compound 1], which IC50 (LasB [1]) is on record?
Answer: The IC50 was 2.73 ± 0.03 µM.

Question: What does the source list for `O=C1CC(S)C(=O)N1c1ccc(Cl)c(Cl)c1` (stereo not drawn) [Compound 13, 1-(3,4-Dichlorophenyl)-3-mercaptopyrrolidine-2,5-dione]?
Answer: IC50 (HDAC-8): > 100 µM; IC50 (TACE (ADAM-17)): 5.2 ± 0.6 µM; inhibition at 100 µM (MMP-7): < 10%; IC50 (in vitro [2]): > 100 µM; inhibition at 100 µM (MMP-3): < 10%; inhibition at 100 µM (MMP-1): < 10%; IC50 (LasB [3]): 3.4 ± 0.2 µM; improved activity against LasB compared to previous hit 5 (LasB [4]): two-fold; inhibition at 50 µM (MMP-8; 50 µM compound, read-out: MMP-8 % inh @50µM): < 10%; inhibition at 100 µM (MMP-8; read-out: MMP-8 % inhibition @ 100 μM, 100 μM compound): 84 ± 8%; IC50 (HDAC-3): > 100 µM; MIC [5]: >100 µM; MIC ([5]; Pseudomonas aeruginosa): > 100 µM; inhibition at 50 µM (MMP-14; 50 µM compound, read-out: MMP-14 % inh @50µM): < 10%; inhibition at 100 µM (MMP-14; read-out: MMP-14 % inhibition @ 100 μM, 100 μM compound): < 10%; inhibition at 50 µM (MMP-2; 50 µM compound, read-out: MMP-2 % inh @50µM): < 10%; inhibition at 100 µM (MMP-2; read-out: MMP-2 % inhibition @ 100 μM, 100 μM compound): 39 ± 32%; inhibition at 1 µM [6]: 12 ± 2%; IC50 (in vitro [7]): > 100 µM; IC50 (in vitro [8]): > 100 µM
